Test results taken from PubChem BioAssay (NCI).
Converted amounts (≈) assume the structure as drawn.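 48-hour exposure; five concentrations; linearly interpolated endpoints. The concentration for 50% growth inhibition is given as GI50. Definition used: TGI = concentration required for complete inhibition of growth.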

Columns and labels:
Assay in all cases: NCI anticancer screen, dose series, 48 h
UACC-62 melanoma = system: UACC-62 melanoma
TK-10 renal = system: TK-10 renal
NCI-H460 lung = system: NCI-H460 lung
OVCAR-5 ovarian = system: OVCAR-5 ovarian
SNB-75 CNS = system: SNB-75 CNS
MCF7 breast = system: MCF7 breast
SK-MEL-5 melanoma = system: SK-MEL-5 melanoma
KM12 colon = system: KM12 colon
RXF 393 renal = system: RXF 393 renal
K-562 leukemia = system: K-562 leukemia
ACHN renal = system: ACHN renal
OVCAR-3 ovarian = system: OVCAR-3 ovarian
HT29 colon = system: HT29 colon
COLO 205 colon = system: COLO 205 colon
SK-MEL-28 melanoma = system: SK-MEL-28 melanoma
SNB-19 CNS = system: SNB-19 CNS
EKVX NSCLC = system: EKVX NSCLC
IGROV1 ovarian = system: IGROV1 ovarian
NCI-H23 lung = system: NCI-H23 lung
DU-145 prostate = system: DU-145 prostate
A549 NSCLC = system: A549 NSCLC
HOP-92 NSCLC = system: HOP-92 NSCLC
PC-3 prostate = system: PC-3 prostate
SF-295 CNS = system: SF-295 CNS
HS 578T breast = system: HS 578T breast
SK-MEL-2 melanoma = system: SK-MEL-2 melanoma
MDA-MB-435 = system: MDA-MB-435
SF-539 CNS = system: SF-539 CNS
A498 renal = system: A498 renal
786-0 renal = system: 786-0 renal

## Cc1cc(C)c(C2CNCc3cc4c(cc32)CNCC4c2c(C)cc(C)cc2C)c(C)c1 (centres undefined)
UACC-62 melanoma
  GI50: 6.7 µg/mL (≈ 15.8 µM)
  TGI: 15.4 µg/mL (≈ 36.2 µM)
TK-10 renal
  GI50: 3.22 µg/mL (≈ 7.59 µM)
  TGI: 26.9 µg/mL (≈ 63.2 µM)
NCI-H460 lung
  GI50: 2.53 µg/mL (≈ 5.96 µM)
  TGI: 6.91 µg/mL (≈ 16.3 µM)
OVCAR-5 ovarian
  GI50: 8.38 µg/mL (≈ 19.7 µM)
  TGI: 20.4 µg/mL (≈ 48 µM)
SNB-75 CNS
  GI50: 0.526 µg/mL (≈ 1.24 µM)
  TGI: 1.92 µg/mL (≈ 4.52 µM)
MCF7 breast
  GI50: 5.42 µg/mL (≈ 12.8 µM)
  TGI: 20.1 µg/mL (≈ 47.3 µM)
SK-MEL-5 melanoma
  GI50: 2 µg/mL (≈ 4.71 µM)
  TGI: 3.96 µg/mL (≈ 9.32 µM)
KM12 colon
  GI50: 2.6 µg/mL (≈ 6.13 µM)
  TGI: 6.74 µg/mL (≈ 15.9 µM)
RXF 393 renal
  GI50: 2.2 µg/mL (≈ 5.18 µM)
  TGI: 4.45 µg/mL (≈ 10.5 µM)
K-562 leukemia
  GI50: 1.1 µg/mL (≈ 2.58 µM)
  TGI: 3.22 µg/mL (≈ 7.58 µM)
ACHN renal
  GI50: 3.76 µg/mL (≈ 8.86 µM)
  TGI: 13.4 µg/mL (≈ 31.5 µM)
OVCAR-3 ovarian
  GI50: 1.91 µg/mL (≈ 4.5 µM)
  TGI: 4.27 µg/mL (≈ 10.1 µM)
HT29 colon
  GI50: 2.75 µg/mL (≈ 6.49 µM)
  TGI: 8.35 µg/mL (≈ 19.7 µM)
COLO 205 colon
  GI50: 2.63 µg/mL (≈ 6.2 µM)
  TGI: 7.49 µg/mL (≈ 17.6 µM)
SK-MEL-28 melanoma
  GI50: 1.83 µg/mL (≈ 4.31 µM)
  TGI: 3.47 µg/mL (≈ 8.18 µM)
SNB-19 CNS
  GI50: 3.46 µg/mL (≈ 8.15 µM)
  TGI: 11 µg/mL (≈ 25.9 µM)
EKVX NSCLC
  GI50: 5.97 µg/mL (≈ 14.1 µM)
  TGI: 17.2 µg/mL (≈ 40.4 µM)
IGROV1 ovarian
  GI50: 4.68 µg/mL (≈ 11 µM)
  TGI: 18 µg/mL (≈ 42.3 µM)
NCI-H23 lung
  GI50: 15.9 µg/mL (≈ 37.4 µM)
  TGI: 30.4 µg/mL (≈ 71.6 µM)
DU-145 prostate
  GI50: 7.21 µg/mL (≈ 17 µM)
  TGI: 19.8 µg/mL (≈ 46.6 µM)
A549 NSCLC
  GI50: 4.53 µg/mL (≈ 10.7 µM)
  TGI: 15.8 µg/mL (≈ 37.3 µM)
HOP-92 NSCLC
  GI50: 11.8 µg/mL (≈ 27.8 µM)
  TGI: 24.9 µg/mL (≈ 58.7 µM)
PC-3 prostate
  GI50: 5.67 µg/mL (≈ 13.3 µM)
  TGI: 15.6 µg/mL (≈ 36.8 µM)
SF-295 CNS
  GI50: 3.44 µg/mL (≈ 8.09 µM)
  TGI: 13.1 µg/mL (≈ 30.9 µM)
HS 578T breast
  GI50: 3.43 µg/mL (≈ 8.07 µM)
  TGI: 13.5 µg/mL (≈ 31.8 µM)
SK-MEL-2 melanoma
  GI50: 2.92 µg/mL (≈ 6.89 µM)
  TGI: 7.4 µg/mL (≈ 17.4 µM)
MDA-MB-435
  GI50: 1.88 µg/mL (≈ 4.44 µM)
  TGI: 3.84 µg/mL (≈ 9.05 µM)
SF-539 CNS
  GI50: 2.23 µg/mL (≈ 5.25 µM)
  TGI: 3.85 µg/mL (≈ 9.07 µM)
A498 renal
  GI50: 2.06 µg/mL (≈ 4.84 µM)
  TGI: 4.48 µg/mL (≈ 10.6 µM)
786-0 renal
  GI50: 2.34 µg/mL (≈ 5.5 µM)
